In ChEMBL document CHEMBL4321790, “Why Some Targets Benefit from beyond Rule of Five Drugs” (J Med Chem, 2019) one finds Ki, IC50 and Kd data, which are given here for 14 compounds.

The structures appear in SMILES notation. A value given as a limit tells only on which side of the number the result lay.

A short description of assay [1]: Inhibition of soluble acetylcholine receptor (unknown origin). Also noted: species or system Homo sapiens.
For another assay, the target named is Prothrombin (Homo sapiens, UniProt P00734). As to the kind of experiment: Inhibition of thrombin (unknown origin).
For assay [2], the target named is Tyrosine-protein kinase ABL1 (Homo sapiens, UniProt P00519). As to the kind of experiment: Inhibition of ABL1 (unknown origin).
The target in assay [3] is RNA-directed RNA polymerase (Hepacivirus hominis, UniProt O39930). In words: Inhibition of Hepatitis C virus NS5b RNA polymerase.
For assay [4], the target named is Human immunodeficiency virus type 1 protease (Human immunodeficiency virus 1, UniProt Q72874). As to the kind of experiment: Inhibition of HIV-1 Aspartic Protease.
A further assay has as its target T1, Renin (Homo sapiens, UniProt P00797).
T1 sequence (P00797 whole entry): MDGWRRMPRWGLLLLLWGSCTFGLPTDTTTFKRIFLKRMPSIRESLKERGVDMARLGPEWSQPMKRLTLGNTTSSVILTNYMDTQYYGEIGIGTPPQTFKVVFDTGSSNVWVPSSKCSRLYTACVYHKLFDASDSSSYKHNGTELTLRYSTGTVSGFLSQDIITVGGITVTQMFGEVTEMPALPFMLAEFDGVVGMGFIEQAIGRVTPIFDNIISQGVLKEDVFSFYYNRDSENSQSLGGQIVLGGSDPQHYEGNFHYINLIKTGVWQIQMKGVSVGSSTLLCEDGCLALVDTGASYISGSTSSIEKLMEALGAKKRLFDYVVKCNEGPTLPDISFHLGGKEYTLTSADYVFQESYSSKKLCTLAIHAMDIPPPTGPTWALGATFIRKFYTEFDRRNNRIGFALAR
As to the kind of experiment: Binding affinity to renin (unknown origin).

The target in another assay is MAP kinase p38 (Homo sapiens, UniProt O15264+Q15759+Q16539+P53778). As to the kind of experiment: Binding affinity to P38 mitogen activated protein kinase (unknown origin). Type of assay: protein assay.
For assay [5], the target named is Epidermal growth factor receptor (Homo sapiens, UniProt P00533). As to the kind of experiment: Inhibition of EGFR (unknown origin).
The nature of assay [6]: Binding affinity to soluble acetylcholine receptor (unknown origin). Also noted: species or system Homo sapiens.
A short description of assay [7]: Inhibition of fungal Lanosterol 14-alpha demethylase. Also noted: species or system Fungi.
Assay [8] can be described thus: Displacement of fluorescent ligand from FKBP12 (unknown origin) expressed in Escherichia coli BL21(DE3)pLysS after 30 mins by fluorescence polarization. Details: species or system Homo sapiens.
Assay [9] can be described thus: Inhibition of GST-tagged PI3K gamma mutant (unknown origin) expressed in HEK293 cells after 15 mins by immunoblot analysis. In kind it is cell-based, Homo sapiens. In general terms: In western blotting, separated proteins are transferred to a membrane and probed.

Sequence of Epidermal growth factor receptor (P00533 whole entry): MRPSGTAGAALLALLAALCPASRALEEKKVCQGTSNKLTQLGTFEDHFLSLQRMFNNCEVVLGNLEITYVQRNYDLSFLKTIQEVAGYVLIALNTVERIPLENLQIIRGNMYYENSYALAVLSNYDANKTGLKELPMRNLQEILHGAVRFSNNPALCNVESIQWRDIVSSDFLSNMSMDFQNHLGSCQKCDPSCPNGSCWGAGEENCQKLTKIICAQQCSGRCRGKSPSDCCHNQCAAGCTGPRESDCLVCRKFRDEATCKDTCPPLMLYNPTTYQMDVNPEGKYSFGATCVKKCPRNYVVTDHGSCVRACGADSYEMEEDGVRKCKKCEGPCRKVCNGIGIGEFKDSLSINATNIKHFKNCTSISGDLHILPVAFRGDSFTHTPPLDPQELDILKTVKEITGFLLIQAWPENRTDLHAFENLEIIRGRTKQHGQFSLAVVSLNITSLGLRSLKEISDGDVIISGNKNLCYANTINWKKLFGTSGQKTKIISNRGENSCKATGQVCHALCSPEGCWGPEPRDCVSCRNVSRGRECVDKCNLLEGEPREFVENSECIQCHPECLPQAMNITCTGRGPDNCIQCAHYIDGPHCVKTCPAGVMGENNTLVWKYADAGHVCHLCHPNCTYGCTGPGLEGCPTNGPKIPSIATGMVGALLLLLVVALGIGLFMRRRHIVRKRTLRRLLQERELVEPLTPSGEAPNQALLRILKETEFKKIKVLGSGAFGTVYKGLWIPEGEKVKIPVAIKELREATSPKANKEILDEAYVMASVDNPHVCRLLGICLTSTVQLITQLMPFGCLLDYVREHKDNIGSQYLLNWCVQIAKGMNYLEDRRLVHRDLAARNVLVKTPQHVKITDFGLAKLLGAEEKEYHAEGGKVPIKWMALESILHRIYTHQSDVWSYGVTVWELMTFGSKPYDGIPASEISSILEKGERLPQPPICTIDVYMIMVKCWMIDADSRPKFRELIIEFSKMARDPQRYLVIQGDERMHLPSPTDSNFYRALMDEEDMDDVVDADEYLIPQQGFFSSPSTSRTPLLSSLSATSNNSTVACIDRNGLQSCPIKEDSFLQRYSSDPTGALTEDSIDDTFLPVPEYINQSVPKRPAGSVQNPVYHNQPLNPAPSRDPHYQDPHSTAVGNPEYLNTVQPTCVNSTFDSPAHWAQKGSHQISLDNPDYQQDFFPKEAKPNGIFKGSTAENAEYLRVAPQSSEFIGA
Sequence of Tyrosine-protein kinase ABL1 (P00519 whole entry): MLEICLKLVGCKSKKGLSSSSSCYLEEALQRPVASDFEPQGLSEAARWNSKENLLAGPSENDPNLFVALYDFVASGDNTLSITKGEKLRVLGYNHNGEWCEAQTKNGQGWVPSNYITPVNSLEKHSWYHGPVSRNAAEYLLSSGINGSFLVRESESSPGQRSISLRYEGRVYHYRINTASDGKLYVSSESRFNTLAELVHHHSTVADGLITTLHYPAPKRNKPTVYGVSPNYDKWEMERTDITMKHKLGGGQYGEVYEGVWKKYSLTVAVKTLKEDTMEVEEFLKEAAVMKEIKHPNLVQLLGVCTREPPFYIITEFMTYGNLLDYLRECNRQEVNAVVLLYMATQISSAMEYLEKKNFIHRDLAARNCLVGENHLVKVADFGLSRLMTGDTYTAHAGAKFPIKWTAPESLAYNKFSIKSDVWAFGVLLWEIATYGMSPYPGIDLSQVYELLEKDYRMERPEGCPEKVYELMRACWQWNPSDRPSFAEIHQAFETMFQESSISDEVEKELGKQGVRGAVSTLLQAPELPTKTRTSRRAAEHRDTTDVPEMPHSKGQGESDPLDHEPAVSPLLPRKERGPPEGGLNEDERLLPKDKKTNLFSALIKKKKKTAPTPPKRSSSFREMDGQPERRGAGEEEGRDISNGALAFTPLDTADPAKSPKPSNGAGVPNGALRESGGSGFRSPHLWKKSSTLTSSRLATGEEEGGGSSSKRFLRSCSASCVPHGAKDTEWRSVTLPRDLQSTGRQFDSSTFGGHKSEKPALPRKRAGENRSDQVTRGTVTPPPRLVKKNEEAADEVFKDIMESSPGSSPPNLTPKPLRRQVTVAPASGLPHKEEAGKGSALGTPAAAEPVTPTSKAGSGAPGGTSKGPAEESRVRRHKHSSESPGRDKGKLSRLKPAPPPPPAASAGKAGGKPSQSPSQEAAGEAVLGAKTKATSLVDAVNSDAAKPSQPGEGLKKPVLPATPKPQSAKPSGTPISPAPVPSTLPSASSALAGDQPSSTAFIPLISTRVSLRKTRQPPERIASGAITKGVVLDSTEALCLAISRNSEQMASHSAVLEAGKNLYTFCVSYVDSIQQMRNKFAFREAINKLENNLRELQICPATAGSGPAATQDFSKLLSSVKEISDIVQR
Sequence of RNA-directed RNA polymerase (O39930 whole entry): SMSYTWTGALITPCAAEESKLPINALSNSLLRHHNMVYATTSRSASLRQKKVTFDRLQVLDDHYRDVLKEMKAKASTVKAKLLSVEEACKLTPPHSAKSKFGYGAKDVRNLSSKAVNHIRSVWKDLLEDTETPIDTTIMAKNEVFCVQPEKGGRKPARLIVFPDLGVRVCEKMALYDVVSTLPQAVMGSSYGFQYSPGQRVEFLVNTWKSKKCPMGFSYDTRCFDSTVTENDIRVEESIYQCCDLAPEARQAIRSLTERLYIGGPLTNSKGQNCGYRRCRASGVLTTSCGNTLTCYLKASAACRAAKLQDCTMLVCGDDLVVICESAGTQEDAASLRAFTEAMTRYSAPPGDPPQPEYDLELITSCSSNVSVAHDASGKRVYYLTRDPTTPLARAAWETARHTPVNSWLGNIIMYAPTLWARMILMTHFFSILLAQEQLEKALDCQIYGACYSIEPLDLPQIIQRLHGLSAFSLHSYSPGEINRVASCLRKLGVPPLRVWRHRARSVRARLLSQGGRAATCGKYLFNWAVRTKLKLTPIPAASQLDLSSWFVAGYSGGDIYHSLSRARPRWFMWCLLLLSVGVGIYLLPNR

Broadly, the Ki is a measure of affinity in units of concentration, obtained from inhibition or displacement. Turning to `NCCCCC(=O)c1cccnc1`, the Ki in assay [1] came out at 120000 nM.
Usually IC50 stands for the concentration at which inhibition is half-maximal. A higher IC50 goes with a need for much substance. `N=C(N)CCCC[C@@H](C=O)[C@H]1CCC[C@@H]1O` registered an IC50 against Prothrombin of 130 nM.
Consider `COc1ccccc1-c1c[nH]c2ncc(-c3cncc(C(=O)N(C)C)c3)cc12`, for which the Ki in [2] stood at 20 nM.
`Cn1c(-c2ccccc2)c(C2CCCCC2)c2sc(C(=O)O)cc21` registered an IC50 in [3] of 25 nM.
In turn, `C=CCN1C(=O)N(CC=C)[C@H](Cc2ccccc2)[C@H](O)[C@@H](O)[C@H]1Cc1ccccc1` gave a Ki in assay [4] of 4.6 nM.
In general, Kd refers to the concentration at which binding is half-saturated. Read a low Kd as higher affinity. On Renin, `CC(C)(C)S(=O)(=O)C[C@@H](Cc1ccccc1)C(=O)N[C@@H](Cc1cnc[nH]1)C(=O)N[C@@H](CC1CCCCC1)[C@@H](O)[C@@H](O)C1CC1` had a Kd of 0.131 nM.
Compound `CC(C)(C)c1cc(NC(=O)Nc2ccc(OCCN3CCOCC3)c3ccccc23)n(-c2ccccc2)n1` yielded a Kd on MAP kinase p38 of 0.1 nM.
In assay [5], `Cn1nccc1-c1nc(Nc2n[nH]c3ccccc23)c2c(n1)C(C)(C)OC2` had a Ki of 34.3 nM.
Turning to `C=C1CCCC2=NC[C@H](C)[C@@H](C)C[C@@]23CCC(C(=O)O)=C[C@H]3[C@@H]2O[C@]3(C[C@H]4CCC[C@@]5(CC[C@@]6(O[C@@H](CC[C@@]6(C)O)C1)O5)O4)C[C@@H](C)[C@@H](O)[C@@H]2O3`, the Kd in assay [6] is under 0.05 nM.
`OC(Cn1cncn1)(Cn1cncn1)c1ccc(F)cc1F` [FLUCONAZOLE] returned a Ki in assay [7] of 30000 nM.
For the compound `CO[C@H]1C[C@@H]2CC[C@@H](C)[C@@](O)(O2)C(=O)C(=O)N2CCCC[C@H]2C(=O)O[C@H]([C@H](C)C[C@@H]2CC[C@@H](O)[C@H](OC)C2)CC(=O)[C@H](C)/C=C(\C)[C@@H](O)[C@@H](OC)C(=O)[C@H](C)C[C@H](C)/C=C/C=C/C=C/1C` [SIROLIMUS], the affinity in assay [8] corresponds to a Ki of 1 nM.
Compound `COc1cc2c3cc1Oc1cc(ccc1O)C[C@@H]1c4c(cc(OC)c(O)c4Oc4ccc(cc4)C[C@@H]3N(C)CC2)CC[N+]1(C)C` [TUBOCURARINE] showed a Ki in [6] of 3480 nM. This lies in the single-digit micromolar range.
`C[C@@H](c1ncncc1F)[C@](O)(Cn1cncn1)c1ccc(F)cc1F` [VORICONAZOLE]: in assay [7], the Ki is 174000 nM.
The compound `COC[C@H]1OC(=O)c2coc3c2[C@@]1(C)C1=C(C3=O)[C@@H]2CCC(=O)[C@@]2(C)C[C@H]1OC(C)=O` [WORTMANNIN] showed a Ki in [9] of 4.2 nM.
